Values quoted from earlier work, collected in EP3137069B1, “NANOPARTICLE FORMULATION CONTAINING FARNESYLTHIOSALICYLIC ACID (SALIRASIB)” (Pehlivan, Sibel, priority 2014, dated 2015).
In brackets after ≈: the same amount, converted by molar mass.

solubility in organic solvents (organic solvents like ethanol, DMSO and dimethylformamide): 20 mg/mL (≈ 55.8 mM)
solubility in water (water): insoluble
SMILES: CC(C)=CCCC(C)=CCCC(C)=CCSc1ccccc1C(=O)O [FTA, Farnesylthiosalicylic acid]
